The values below come from patent US20210122730A1, “GLUCOCORTICOID RECEPTOR MODULATORS” (ORIC Pharmaceuticals, Inc., priority 2017, published 2021).

The structures appear in SMILES notation.

The test concerns the target T1, GR (Homo sapiens, UniProt P04150).
T1 construct: expressed in transfected cells; host or cells: CHO-K1
T1 sequence (P04150 1-777): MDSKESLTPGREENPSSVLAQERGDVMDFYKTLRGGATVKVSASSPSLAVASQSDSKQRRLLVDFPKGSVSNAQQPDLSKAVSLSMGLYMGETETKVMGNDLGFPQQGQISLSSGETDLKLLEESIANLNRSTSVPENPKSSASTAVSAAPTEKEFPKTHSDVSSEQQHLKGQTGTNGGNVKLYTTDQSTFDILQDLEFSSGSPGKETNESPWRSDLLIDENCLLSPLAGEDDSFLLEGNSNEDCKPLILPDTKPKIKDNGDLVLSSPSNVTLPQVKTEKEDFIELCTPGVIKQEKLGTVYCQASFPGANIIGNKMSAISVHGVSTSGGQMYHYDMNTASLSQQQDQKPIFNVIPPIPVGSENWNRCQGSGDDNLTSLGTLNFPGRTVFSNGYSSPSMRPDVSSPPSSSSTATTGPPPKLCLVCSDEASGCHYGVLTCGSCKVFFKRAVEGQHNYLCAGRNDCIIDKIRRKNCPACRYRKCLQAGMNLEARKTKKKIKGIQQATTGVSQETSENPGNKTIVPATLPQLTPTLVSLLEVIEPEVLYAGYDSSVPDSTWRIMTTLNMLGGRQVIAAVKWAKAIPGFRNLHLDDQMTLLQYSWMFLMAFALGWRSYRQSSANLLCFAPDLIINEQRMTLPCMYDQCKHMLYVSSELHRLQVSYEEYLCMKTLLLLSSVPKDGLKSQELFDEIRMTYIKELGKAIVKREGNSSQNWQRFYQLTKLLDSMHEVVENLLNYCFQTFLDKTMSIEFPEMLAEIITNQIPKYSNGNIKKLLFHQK
The test can be described thus: In Vitro GR Luciferase Reporter Assay (antagonist mode, CHO-K1-GR-MMTV-Luc reporter cells). As to conditions: antagonist mode, 10 nM Dexamethasone. The class given is cell-based. The procedure, abridged:
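Antagonist mode: compounds (8 serial 1:5 dilutions) added to GR-MMTV-luciferase CHO-K1 reporter cells co-exposed to 10 nM dexamethasone final, in phenol red-free DMEM plus 10% CSS. After roughly 18-24 h at 37° C, OneGlo luminescence read and IC50 calculated.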
As usually defined, the IC50 is the concentration needed to halve the response being measured. Read a high IC50 as a need for much substance. Regarding `O=C(c1nccs1)[C@]12Cc3cnn(-c4ccc(F)cc4)c3C=C1CC[C@H](N(C1CC1)S(=O)(=O)c1ccc(F)cc1)C2` [Example 159, N-cyclopropyl-4-fluoro-N-((4aS,6S)-1-(4-fluorophenyl)-4a-(thiazole-2-carbonyl)-4,4a,5,6,7,8-hexahydro-1H-benzo[f]indazol-6-yl)benzenesulfonamide], the IC50 is not above 100 nM.
The compound `CN([C@H]1CCC2=Cc3c(cnn3-c3ccc(F)cc3)C[C@]2(C(=O)c2nccs2)C1)S(=O)(=O)c1cnn(C)n1` [Example 161, N-((4aS,6S)-1-(4-fluorophenyl)-4a-(thiazole-2-carbonyl)-4,4a,5,6,7,8-hexahydro-1H-benzo[f]indazol-6-yl)-N,2-dimethyl-2H-1,2,3-triazole-4-sulfonamide] registered an IC50 not above 100 nM.
To `CN([C@H]1CCC2=Cc3c(cnn3-c3ccc(F)cc3)C[C@]2(C(=O)c2nccs2)C1)S(=O)(=O)c1cnn(C2CC2)n1` [Example 162, 2-cyclopropyl-N-((4aS,6S)-1-(4-fluorophenyl)-4a-(thiazole-2-carbonyl)-4,4a,5,6,7,8-hexahydro-1H-benzo[f]indazol-6-yl)-N-methyl-2H-1,2,3-triazole-4-sulfonamide] belongs not above 100 nM; to `CN([C@H]1CCC2=Cc3c(cnn3-c3ccc(F)cc3)C[C@]2(C(=O)c2cc(C(F)(F)F)ccn2)C1)S(=O)(=O)c1cn(C)cn1` [Example 163, N-((4aS,6S)-1-(4-fluorophenyl)-4a-(4-(trifluoromethyl)picolinoyl)-4,4a,5,6,7,8-hexahydro-1H-benzo[f]indazol-6-yl)-N,1-dimethyl-1H-imidazole-4-sulfonamide], not above 100 nM; to `CCN([C@H]1CCC2=Cc3c(cnn3-c3ccc(F)cc3)C[C@]2(C(=O)c2nccs2)C1)S(=O)(=O)c1cnn(C(F)F)c1` [Example 165, 1-(difluoromethyl)-N-ethyl-N-((4aS,6S)-1-(4-fluorophenyl)-4a-(thiazole-2-carbonyl)-4,4a,5,6,7,8-hexahydro-1H-benzo[f]indazol-6-yl)-1H-pyrazole-4-sulfonamide], not above 100 nM.
In turn, `CCN([C@H]1CCC2=Cc3c(cnn3-c3ccc(F)cc3)C[C@]2(C(=O)c2nccs2)C1)S(=O)(=O)c1ccn(C)n1` [Example 167, N-ethyl-N-((4aS,6S)-1-(4-fluorophenyl)-4a-(thiazole-2-carbonyl)-4,4a,5,6,7,8-hexahydro-1H-benzo[f]indazol-6-yl)-1-methyl-1H-pyrazole-3-sulfonamide] returned an IC50 not above 100 nM.
To `Cn1cc(S(=O)(=O)N(C2CC2)[C@H]2CCC3=Cc4c(cnn4-c4ccc(F)cc4)C[C@]3(C(=O)c3nccs3)C2)cn1` [Example 168, N-cyclopropyl-N-((4aS,6S)-1-(4-fluorophenyl)-4a-(thiazole-2-carbonyl)-4,4a,5,6,7,8-hexahydro-1H-benzo[f]indazol-6-yl)-1-methyl-1H-pyrazole-4-sulfonamide] belongs not above 100 nM.
For the compound `CN([C@H]1CCC2=Cc3c(cnn3-c3ccc(F)cc3)C[C@]2(C(=O)c2cc(C(F)(F)F)ccn2)C1)S(=O)(=O)c1cnnn1C` [Example 169, N-((4aS,6S)-1-(4-fluorophenyl)-4a-(4-(trifluoromethyl)picolinoyl)-4,4a,5,6,7,8-hexahydro-1H-benzo[f]indazol-6-yl)-N,1-dimethyl-1H-1,2,3-triazole-5-sulfonamide], the IC50 was not above 100 nM.
In the case of `Cn1cc(S(=O)(=O)N(C2CC2)[C@H]2CCC3=Cc4c(cnn4-c4ccc(F)cc4)C[C@]3(C(=O)c3ncc(C4CC4)s3)C2)cn1` [Example 171, N-cyclopropyl-N-((4aS,6S)-4a-(5-cyclopropylthiazole-2-carbonyl)-1-(4-fluorophenyl)-4,4a,5,6,7,8-hexahydro-1H-benzo[f]indazol-6-yl)-1-methyl-1H-pyrazole-4-sulfonamide], the IC50 was not above 100 nM.
The compound `Cn1ccc(S(=O)(=O)N(CC2CC2)[C@H]2CCC3=Cc4c(cnn4-c4ccc(F)cc4)C[C@]3(C(=O)c3nccs3)C2)n1` [Example 172, N-(cyclopropylmethyl)-N-((4aS,6S)-1-(4-fluorophenyl)-4a-(thiazole-2-carbonyl)-4,4a,5,6,7,8-hexahydro-1H-benzo[f]indazol-6-yl)-1-methyl-1H-pyrazole-3-sulfonamide] registered an IC50 not above 100 nM.
Then `Cn1ncc(S(=O)(=O)N(C2CC2)[C@H]2CCC3=Cc4c(cnn4-c4ccc(F)cc4)C[C@]3(C(=O)c3nccs3)C2)n1` [Example 173, N-cyclopropyl-N-((4aS,6S)-1-(4-fluorophenyl)-4a-(thiazole-2-carbonyl)-4,4a,5,6,7,8-hexahydro-1H-benzo[f]indazol-6-yl)-2-methyl-2H-1,2,3-triazole-4-sulfonamide], with not above 100 nM; and `Cn1ncc(S(=O)(=O)N(C2CC2)[C@H]2CCC3=Cc4c(cnn4-c4ccc(F)cc4)C[C@]3(C(=O)c3ncc(C4CC4)s3)C2)n1` [Example 174, N-cyclopropyl-N-((4aS,6S)-4a-(5-cyclopropylthiazole-2-carbonyl)-1-(4-fluorophenyl)-4,4a,5,6,7,8-hexahydro-1H-benzo[f]indazol-6-yl)-2-methyl-2H-1,2,3-triazole-4-sulfonamide], with not above 100 nM; and `CCN([C@H]1CCC2=Cc3c(cnn3-c3ccc(F)cc3)C[C@]2(C(=O)c2ncc(C3CC3)s2)C1)S(=O)(=O)c1ccn(C)n1` [Example 175, N-((4aS,6S)-4a-(5-cyclopropylthiazole-2-carbonyl)-1-(4-fluorophenyl)-4,4a,5,6,7,8-hexahydro-1H-benzo[f]indazol-6-yl)-N-ethyl-1-methyl-1H-pyrazole-3-sulfonamide], with not above 100 nM.
In turn, `O=C(c1ncc(C(F)(F)F)s1)[C@]12Cc3cnn(-c4ccc(F)cc4)c3C=C1CC[C@H](N(C1CC1)S(=O)(=O)c1cnn(C(F)F)c1)C2` [Example 180, N-cyclopropyl-1-(difluoromethyl)-N-((4aS,6S)-1-(4-fluorophenyl)-4a-(5-(trifluoromethyl)thiazole-2-carbonyl)-4,4a,5,6,7,8-hexahydro-1H-benzo[f]indazol-6-yl)-1H-pyrazole-4-sulfonamide] returned a half-inhibitory concentration (IC50) not above 100 nM.
Regarding `Cn1cc(S(=O)(=O)N(CC2CC2)[C@H]2CCC3=Cc4c(cnn4-c4ccc(F)cc4)C[C@]3(C(=O)c3ncc(C(F)(F)F)s3)C2)cn1` [Example 181, N-(cyclopropylmethyl)-N-((4aS,6S)-1-(4-fluorophenyl)-4a-(5-(trifluoromethyl)thiazole-2-carbonyl)-4,4a,5,6,7,8-hexahydro-1H-benzo[f]indazol-6-yl)-1-methyl-1H-pyrazole-4-sulfonamide], the IC50 was not above 100 nM.
To `CC(C)N([C@H]1CCC2=Cc3c(cnn3-c3ccc(F)cc3)C[C@]2(C(=O)c2ncc(C3CC3)s2)C1)S(=O)(=O)c1ccn(C)n1` [Example 185, N-((4aS,6S)-4a-(5-cyclopropylthiazole-2-carbonyl)-1-(4-fluorophenyl)-4,4a,5,6,7,8-hexahydro-1H-benzo[f]indazol-6-yl)-N-isopropyl-1-methyl-1H-pyrazole-3-sulfonamide] belongs not above 100 nM; to `Cn1ccc(S(=O)(=O)N(CC2CC2)[C@H]2CCC3=Cc4c(cnn4-c4ccc(F)cc4)C[C@]3(C(=O)c3ncc(C4CC4)s3)C2)n1` [Example 187, N-(cyclopropylmethyl)-N-((4aS,6S)-4a-(5-cyclopropylthiazole-2-carbonyl)-1-(4-fluorophenyl)-4,4a,5,6,7,8-hexahydro-1H-benzo[f]indazol-6-yl)-1-methyl-1H-pyrazole-3-sulfonamide], not above 100 nM; to `Cn1cc(C(=O)N(C2CC2)[C@H]2CCC3=Cc4c(cnn4-c4ccc(F)cc4)C[C@]3(C(=O)c3ncc(C(F)(F)F)s3)C2)cn1` [Example 188, N-cyclopropyl-N-((4aS,6S)-1-(4-fluorophenyl)-4a-(5 (trifluoromethyl)thiazole-2-carbonyl)-4,4a,5,6,7,8-hexahydro-1H-benzo[f]indazol-6-yl)-1-methyl-1H-pyrazole-4-carboxamide], not above 100 nM.
To `Cn1cc(S(=O)(=O)[C@H]2CCC3=Cc4c(cnn4-c4ccc(F)cc4)C[C@]3(C(=O)c3ncc(C(F)(F)F)s3)C2)cn1` [Example 190, ((4aS,6S)-1-(4-fluorophenyl)-6-((1-methyl-1H-pyrazol-4-yl)sulfonyl)-1,4,5,6,7,8-hexahydro-4aH-benzo[f]indazol-4a-yl)(5-(trifluoromethyl)thiazol-2-yl)methanone] belongs not above 100 nM.
Regarding `CC(C)N([C@H]1CCC2=Cc3c(cnn3-c3ccc(F)cc3)C[C@]2(C(=O)c2ncc(C3CC3)s2)C1)S(=O)(=O)c1cnn(C)c1` [Example 192, N-((4aS,6S)-4a-(5-cyclopropylthiazole-2-carbonyl)-1-(4-fluorophenyl)-4,4a,5,6,7,8-hexahydro-1H-benzo[f]indazol-6-yl)-N-isopropyl-1-methyl-1H-pyrazole-4-sulfonamide], the IC50 is not above 100 nM.
